Test results: ChEMBL document CHEMBL1201862, “PubChem BioAssay data set” (2004)
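Growth conditions: 96-well plates. Treatment: test compound, 48 hours, 5 concentrations. Analysis: linear interpolation between bracketing concentrations; unreached endpoints set to highest concentration. The concentration for 50% growth inhibition is given as GI50.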 Activity calls are given as the source filed them. Cut-off read from the data, not from the text of the source: active = GI50 up to about 1.1 µM and inactive = higher.

How the values were obtained:
Assay in all cases: NCI tumour cell line growth inhibition, 48 h
Hs-578T = system: Hs-578T
CAKI-1 = system: CAKI-1
SN12C = system: SN12C
SR = system: SR
U-251 = system: U-251
SF-539 = system: SF-539
HCC 2998 = system: HCC 2998
KM12 = system: KM12
IGROV-1 = system: IGROV-1
OVCAR-3 = system: OVCAR-3
OVCAR-5 = system: OVCAR-5
M14 = system: M14
OVCAR-8 = system: OVCAR-8
T47D = system: T47D
HCT-116 = system: HCT-116
A549 = system: A549
HT-29 = system: HT-29
BT-549 = system: BT-549
SF-295 = system: SF-295
SF-268 = system: SF-268
786-0 = system: 786-0
SK-MEL-28 = system: SK-MEL-28
MOLT-4 = system: MOLT-4
SNB-19 = system: SNB-19
PC-3 = system: PC-3
HCT-15 = system: HCT-15
K562 = system: K562
MCF7 = system: MCF7
NCI-H522 = system: NCI-H522
EKVX = system: EKVX
UACC-62 = system: UACC-62
NCI-H23 = system: NCI-H23
RPMI-8226 = system: RPMI-8226
NCI-H460 = system: NCI-H460
UO-31 = system: UO-31
SK-OV-3 = system: SK-OV-3
A498 = system: A498
NCI-H226 = system: NCI-H226
TK-10 = system: TK-10
DU-145 = system: DU-145
SNB-75 = system: SNB-75
SK-MEL-2 = system: SK-MEL-2
NCI/ADR-RES = system: NCI/ADR-RES
ACHN = system: ACHN
SK-MEL-5 = system: SK-MEL-5
UACC-257 = system: UACC-257
HOP-62 = system: HOP-62
SW-620 = system: SW-620
MDA-MB-231 = system: MDA-MB-231
Malme-3M = system: Malme-3M
HOP-92 = system: HOP-92
COLO 205 = system: COLO 205
OVCAR-4 = system: OVCAR-4
MDA-MB-435 = system: MDA-MB-435

## COc1ccc(C2=NNC(=O)c3ccccc3N2c2nc(-c3cccs3)nc3cc(OC)c(OC)cc23)cc1
Hs-578T
  GI50: 3.85 µM (inactive)
CAKI-1
  GI50: 14.6 µM (inactive)
SN12C
  GI50: 3.17 µM (inactive)
SR
  GI50: 0.673 µM (active)
U-251
  GI50: 3.3 µM (inactive)
SF-539
  GI50: 2.79 µM (inactive)
HCC 2998
  GI50: 2.96 µM (inactive)
KM12
  GI50: 4.09 µM (inactive)
IGROV-1
  GI50: 11.1 µM (inactive)
OVCAR-3
  GI50: 2.61 µM (inactive)
OVCAR-5
  GI50: 27.7 µM (inactive)
M14
  GI50: 4.29 µM (inactive)
OVCAR-8
  GI50: 5.05 µM (inactive)
T47D
  GI50: 2.76 µM (inactive)
HCT-116
  GI50: 3.92 µM (inactive)
A549
  GI50: 5.6 µM (inactive)
HT-29
  GI50: 3.15 µM (inactive)
BT-549
  GI50: 2.62 µM (inactive)
SF-295
  GI50: 3.95 µM (inactive)
SF-268
  GI50: 6.46 µM (inactive)
786-0
  GI50: 2.32 µM (inactive)
SK-MEL-28
  GI50: 2.39 µM (inactive)
MOLT-4
  GI50: 16.6 µM (inactive)
SNB-19
  GI50: 2.79 µM (inactive)
PC-3
  GI50: 4.68 µM (inactive)
HCT-15
  GI50: 5.92 µM
K562
  GI50: 24.3 µM (inactive)
MCF7
  GI50: 3.36 µM (inactive)
NCI-H522
  GI50: 5.98 µM (inactive)
EKVX
  GI50: 20.9 µM (inactive)
UACC-62
  GI50: 2.34 µM (inactive)
NCI-H23
  GI50: 7.13 µM (inactive)
RPMI-8226
  GI50: 3.71 µM (inactive)
NCI-H460
  GI50: 4.43 µM (inactive)
UO-31
  GI50: 4.34 µM (inactive)
SK-OV-3
  GI50: 17 µM (inactive)
A498
  GI50: 2.61 µM (inactive)
NCI-H226
  GI50: 4.56 µM (inactive)
TK-10
  GI50: 5.24 µM (inactive)
DU-145
  GI50: 6.49 µM (inactive)
SNB-75
  GI50: 3.81 µM (inactive)
SK-MEL-2
  GI50: 5.27 µM (inactive)
NCI/ADR-RES
  GI50: 5.55 µM (inactive)
ACHN
  GI50: 3.07 µM (inactive)
SK-MEL-5
  GI50: 3.72 µM (inactive)
UACC-257
  GI50: 4.19 µM (inactive)
HOP-62
  GI50: 3.13 µM (inactive)
SW-620
  GI50: 4.86 µM (inactive)
MDA-MB-231
  GI50: 2.81 µM (inactive)
Malme-3M
  GI50: 2.6 µM (inactive)
HOP-92
  GI50: 2.86 µM (inactive)
COLO 205
  GI50: 2.86 µM (inactive)
OVCAR-4
  GI50: 1.8 µM (inactive)
MDA-MB-435
  GI50: 3.75 µM (inactive)
